Where two headings read alike, the source gives them in different places.
How the values were obtained:
CDK4 = biological target: T1, CDK4 (Homo sapiens, UniProt P11802); assay: In vitro kinase inhibition IC50, luminescence (ADP Glo), retinoblastoma substrate; assay type: biochemical; details: read-out: CDK4/D1 IC50
T1 construct: purchased Invitrogen PR8064A
Procedure, shortened: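 CDK4 enzyme (5 nM, Invitrogen) was combined with test compound and a mix of retinoblastoma substrate (1 μM) plus ATP (25 μM) in kinase buffer, 30 μL/well in 96-well half area white plates. After 2H at room temperature, ADP Glo reagent stopped the reaction for 45 min, then detection reagent was added and luminescence was read.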

CDK6 = biological target: T2, CDK6 (Homo sapiens, UniProt Q00534); assay: as above; assay type: biochemical; details: read-out: CDK6/D1 IC50
T2 construct: purchased Invitrogen PR8422B
T2 sequence (Q00534 whole entry): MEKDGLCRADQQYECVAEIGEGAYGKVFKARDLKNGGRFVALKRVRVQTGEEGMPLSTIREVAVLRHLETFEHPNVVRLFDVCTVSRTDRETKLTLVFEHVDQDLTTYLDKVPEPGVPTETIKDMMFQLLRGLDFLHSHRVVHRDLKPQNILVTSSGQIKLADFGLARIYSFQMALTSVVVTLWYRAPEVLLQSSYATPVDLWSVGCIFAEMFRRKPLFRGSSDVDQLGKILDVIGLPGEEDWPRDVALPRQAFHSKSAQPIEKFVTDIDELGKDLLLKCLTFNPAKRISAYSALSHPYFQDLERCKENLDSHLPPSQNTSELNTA
T2 sequence (P24385 whole entry partner): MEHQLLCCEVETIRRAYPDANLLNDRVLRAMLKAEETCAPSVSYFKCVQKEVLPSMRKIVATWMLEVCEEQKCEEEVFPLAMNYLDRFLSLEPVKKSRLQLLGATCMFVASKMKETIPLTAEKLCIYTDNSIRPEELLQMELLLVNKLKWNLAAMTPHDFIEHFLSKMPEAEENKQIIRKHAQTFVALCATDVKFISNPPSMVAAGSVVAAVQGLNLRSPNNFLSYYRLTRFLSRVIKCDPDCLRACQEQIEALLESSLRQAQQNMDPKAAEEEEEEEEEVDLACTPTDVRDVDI
Procedure, shortened: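 Recombinant CDK6 (5 nM) with retinoblastoma substrate (1 μM) and 25 μM ATP, compound at final 0.1–200 nM, incubated 2 h at room temperature. ADP formed detected by ADP-Glo luminescence. IC50 from four-parameter logistic fit of percent inhibition.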

CDK1 (cyclin B) = biological target: T3, CDK1 (cyclin B) (Homo sapiens, UniProt P06493); assay: Z'-LYTE kinase assay; assay type: biochemical
T3 construct: purchased Invitrogen Life Technologies (assay service)
T3 sequence (P06493 whole entry): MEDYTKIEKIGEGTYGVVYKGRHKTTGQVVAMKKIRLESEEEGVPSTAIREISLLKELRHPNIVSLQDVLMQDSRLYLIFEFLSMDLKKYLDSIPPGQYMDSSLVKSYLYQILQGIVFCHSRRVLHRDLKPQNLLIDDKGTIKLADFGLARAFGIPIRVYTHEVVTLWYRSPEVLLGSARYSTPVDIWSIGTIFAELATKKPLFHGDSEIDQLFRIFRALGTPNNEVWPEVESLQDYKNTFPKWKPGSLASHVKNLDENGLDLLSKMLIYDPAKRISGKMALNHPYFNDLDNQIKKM
T3 sequence (P14635 whole entry partner): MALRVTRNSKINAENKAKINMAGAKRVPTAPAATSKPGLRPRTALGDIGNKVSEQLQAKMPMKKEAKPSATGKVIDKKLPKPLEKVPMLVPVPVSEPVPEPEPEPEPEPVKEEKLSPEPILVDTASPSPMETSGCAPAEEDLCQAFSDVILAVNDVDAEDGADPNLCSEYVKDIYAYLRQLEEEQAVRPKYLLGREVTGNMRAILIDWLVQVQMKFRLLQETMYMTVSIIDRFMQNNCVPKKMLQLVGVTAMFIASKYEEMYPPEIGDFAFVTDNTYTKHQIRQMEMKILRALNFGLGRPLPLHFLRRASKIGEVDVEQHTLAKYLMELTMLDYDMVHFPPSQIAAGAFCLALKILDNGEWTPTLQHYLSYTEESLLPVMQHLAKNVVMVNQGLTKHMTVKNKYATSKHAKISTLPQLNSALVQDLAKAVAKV
Description: The plates were shaken for 30 seconds, and incubated for 60 minutes at room temperature. […] The plates were read on fluorescence plate reader with Dual emission at 445 nm and 520 nm.
The following equations were used for Z′-LYTE™ Screening Assay Data Analysis.

CDK2 (cyclin A) = biological target: T4, CDK2 (cyclin A) (Homo sapiens, UniProt P24941); assay: Z'-LYTE kinase assay; assay type: biochemical
T4 construct: purchased Invitrogen Life Technologies (assay service)
Procedure, shortened: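 FRET-based Z′-LYTE read-out using 1.22–10.3 ng CDK2/cyclin A with Ser/Thr 12 peptide (2 μM in the 2× mix) and ATP (31 μM as the 4× solution), in HEPES pH 7.5, MgCl2, EGTA and BRIJ-35, for 60 min at room temperature. After 1 h of development, the 445/520 nm emission was read, and percent inhibition was fitted to a four-parameter logistic curve for IC50.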

FMS kinase = biological target: T5, FMS kinase (Homo sapiens, UniProt P07333); assay: LanthaScreen Eu Kinase Binding Assay (ATP, fluorescent-PolyGT substrate); assay type: biochemical
T5 construct: purchased Invitrogen (Life Technologies)
T5 sequence (P07333 20-972): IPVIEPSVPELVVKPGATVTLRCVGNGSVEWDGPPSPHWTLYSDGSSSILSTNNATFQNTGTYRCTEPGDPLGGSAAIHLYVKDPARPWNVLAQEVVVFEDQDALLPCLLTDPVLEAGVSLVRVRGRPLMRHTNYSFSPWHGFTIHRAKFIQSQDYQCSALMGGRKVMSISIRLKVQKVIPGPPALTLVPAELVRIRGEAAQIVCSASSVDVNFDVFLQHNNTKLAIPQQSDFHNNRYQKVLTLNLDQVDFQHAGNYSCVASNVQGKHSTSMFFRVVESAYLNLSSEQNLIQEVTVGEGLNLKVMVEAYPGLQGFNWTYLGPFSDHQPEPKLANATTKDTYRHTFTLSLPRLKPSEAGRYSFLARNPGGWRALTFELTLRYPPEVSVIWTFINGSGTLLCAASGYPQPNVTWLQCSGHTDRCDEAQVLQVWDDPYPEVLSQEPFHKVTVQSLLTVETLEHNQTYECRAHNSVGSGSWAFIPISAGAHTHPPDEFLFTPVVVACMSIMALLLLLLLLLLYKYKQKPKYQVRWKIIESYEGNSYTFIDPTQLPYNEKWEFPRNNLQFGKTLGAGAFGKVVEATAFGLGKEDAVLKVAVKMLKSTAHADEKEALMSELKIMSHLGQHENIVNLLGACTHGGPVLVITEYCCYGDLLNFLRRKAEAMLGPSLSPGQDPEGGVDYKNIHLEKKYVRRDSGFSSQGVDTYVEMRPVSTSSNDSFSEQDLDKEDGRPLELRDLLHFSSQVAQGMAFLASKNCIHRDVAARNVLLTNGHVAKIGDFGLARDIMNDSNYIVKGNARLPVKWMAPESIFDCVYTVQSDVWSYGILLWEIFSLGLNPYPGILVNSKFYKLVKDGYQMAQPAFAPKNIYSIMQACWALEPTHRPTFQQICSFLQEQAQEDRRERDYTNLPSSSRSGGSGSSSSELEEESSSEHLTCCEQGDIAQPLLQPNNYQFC
Procedure, shortened: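 Kinase (1.25 nM) preincubated 10 min with 3-fold compound dilutions, then ATP 10 μM and fluorescent PolyGT substrate 200 nM added for 1 h in the dark at room temperature. Stopped with Tb-antibody (4 nM) and EDTA 20 mM; TR-FRET at 340 nm excitation, 495/520 nm emission; IC50 from four-parameter fit.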

[1] = test system: DU4475 breast carcinoma cells; assay: Cancer cell proliferation assay, single agent (cell viability); assay type: cell-based; details: Homo sapiens, DU-4475; Table 4; Rb negative; treatment 144 Hr with medium change at 72 Hr; Cell Titer-Glo or resazurin
Procedure, shortened: (§1)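 Cells seeded day 1, then exposed on day 2 to 7–9 compound concentrations (e.g. 1.1 nM–10 μM); BT-549 for 24 h, MCF-7 and DU4475 for 144 h with medium change at 72 h. Viability by CellTiter-Glo or resazurin; IC50 from variable-slope sigmoidal fit.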

[2] = test system: MCF-7 breast adenocarcinoma cells; assay: as above; assay type: cell-based; details: Homo sapiens
Procedure, shortened: as §1

[3] = test system: MCF-7-PR (palbociclib-resistant MCF-7) cells; assay: Cell viability in palbociclib-resistant cell line; assay type: cell-based; details: for IC50: Homo sapiens, MCF7, Table 5, palbociclib-resistant cell line maintained at about 850 nM palbociclib
Description: Cells were treated with test compounds at 7 to 9 concentrations within a desired concentration range (e.g. 1.1 nM-10 μM) on day 2 by series diluting the test compound stock solution (10 mM in DMSO) with culture medium. Treatment duration was 24 Hr for BT-549 cells and 144 Hr (with a medium change at 72 Hr) for MCF-7 and DU4475 cells. Cell viability was assessed by Cell Titer-Glo® as recommended by Promega (Cat. No.: G7572), or by resazurin assay (Sigma Aldrich, Cat. No.: R7017) post treatment.
Cell viability data were plotted using GraphPad Prism (GraphPad Software, Inc., San Diego, Calif.). In addition, a nonlinear regression model with a sigmoidal dose response and variable slope within GraphPad Prism was used to calculate the IC50 value of individual test compounds.
The effects of test compounds in a palbociclib-resistant cell line and a parental, non-resistant cell line were compared. The palbociclib-resistant cell line (“MCF-7-PR”) was derived from the parental, non-resistant cell line (MCF-7 breast adenocarcinoma cells) by culture of cells over a period of three months in increasing concentrations of palbociclib, starting from about 350 nM and ending at about 850 nM, the final concentration at which they were then maintained in culture. The MCF-7-PR cells were checked using a cell viability assay to confirm that they had at least 5-fold resistance to palbociclib compared to parental MCF-7 cells, as measured by an increase in the cell viability IC50 values. Assessment of cell viability following treatment with palbociclib or test compounds was performed according to the method described above for MCF-7 cells.

PI3Kδ kinase = biological target: T6, PI3Kδ kinase (Homo sapiens, UniProt O00329); assay: PI3Kδ kinase assay (ADP-Glo, Reaction Biology); assay type: biochemical
T6 construct: purchased Reaction Biology Corporation (assay service)
T6 sequence (O00329 whole entry): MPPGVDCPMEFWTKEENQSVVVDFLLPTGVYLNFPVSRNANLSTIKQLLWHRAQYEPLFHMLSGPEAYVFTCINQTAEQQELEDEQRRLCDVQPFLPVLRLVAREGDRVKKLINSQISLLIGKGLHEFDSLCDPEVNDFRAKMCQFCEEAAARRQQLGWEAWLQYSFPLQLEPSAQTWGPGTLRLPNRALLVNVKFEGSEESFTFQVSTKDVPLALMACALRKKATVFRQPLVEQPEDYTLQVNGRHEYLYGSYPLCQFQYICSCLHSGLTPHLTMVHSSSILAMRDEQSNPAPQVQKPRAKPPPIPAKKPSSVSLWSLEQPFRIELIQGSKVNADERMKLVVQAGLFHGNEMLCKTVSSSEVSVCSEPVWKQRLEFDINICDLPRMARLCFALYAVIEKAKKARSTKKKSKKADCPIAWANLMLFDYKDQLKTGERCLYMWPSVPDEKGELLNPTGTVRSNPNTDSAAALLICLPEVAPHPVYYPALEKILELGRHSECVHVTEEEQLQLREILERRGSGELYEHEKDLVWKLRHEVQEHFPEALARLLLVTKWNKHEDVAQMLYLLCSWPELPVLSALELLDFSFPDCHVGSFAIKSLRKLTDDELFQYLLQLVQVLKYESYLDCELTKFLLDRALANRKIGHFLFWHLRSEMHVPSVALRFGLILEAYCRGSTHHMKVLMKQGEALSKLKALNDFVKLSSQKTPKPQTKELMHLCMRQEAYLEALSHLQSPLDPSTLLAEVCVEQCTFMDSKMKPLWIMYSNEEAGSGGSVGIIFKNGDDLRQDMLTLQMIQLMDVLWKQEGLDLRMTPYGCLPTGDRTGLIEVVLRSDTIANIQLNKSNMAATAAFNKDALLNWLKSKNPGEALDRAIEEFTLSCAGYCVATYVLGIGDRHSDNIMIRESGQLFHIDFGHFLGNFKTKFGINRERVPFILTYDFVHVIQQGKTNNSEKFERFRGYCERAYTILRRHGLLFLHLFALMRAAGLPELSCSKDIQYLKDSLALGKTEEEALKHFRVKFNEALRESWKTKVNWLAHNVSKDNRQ
T6 sequence (P27986 whole entry partner): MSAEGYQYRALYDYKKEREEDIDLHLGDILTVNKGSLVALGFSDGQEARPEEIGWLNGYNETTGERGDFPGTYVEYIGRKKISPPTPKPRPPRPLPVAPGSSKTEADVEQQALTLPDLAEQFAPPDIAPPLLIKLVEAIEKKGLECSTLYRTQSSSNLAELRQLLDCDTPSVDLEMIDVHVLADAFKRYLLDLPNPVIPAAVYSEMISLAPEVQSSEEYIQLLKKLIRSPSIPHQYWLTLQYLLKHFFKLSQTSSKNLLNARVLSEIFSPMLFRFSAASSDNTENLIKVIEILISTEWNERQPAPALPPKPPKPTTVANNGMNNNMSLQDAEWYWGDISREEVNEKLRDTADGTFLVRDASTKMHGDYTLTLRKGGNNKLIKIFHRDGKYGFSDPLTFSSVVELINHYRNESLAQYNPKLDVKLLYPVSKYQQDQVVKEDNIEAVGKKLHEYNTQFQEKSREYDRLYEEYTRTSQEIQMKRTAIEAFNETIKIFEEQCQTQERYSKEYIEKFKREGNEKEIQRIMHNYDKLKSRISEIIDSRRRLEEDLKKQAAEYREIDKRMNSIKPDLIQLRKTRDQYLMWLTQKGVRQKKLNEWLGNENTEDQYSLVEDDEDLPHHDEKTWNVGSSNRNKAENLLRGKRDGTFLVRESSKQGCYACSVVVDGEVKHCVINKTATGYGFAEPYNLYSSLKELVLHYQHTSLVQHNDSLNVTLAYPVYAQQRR
Procedure, shortened: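 Kinase in Tris-HCl 40 mM pH 7.5, MgCl2 20 mM, orthovanadate 3 mM, DTT 2 mM, 0.05% CHAPS, 1% DMSO, preincubated 10 min at room temperature with compound (about 0.5 nM–100 μM). ATP started a 30-min reaction at 30 °C. ADP-Glo luminescence converted to μM ADP via standard curve; IC50 from nonlinear regression.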

[4] = test system: Rb Ser780 phosphorylation in MCF-7 cells; assay: Determination of pRb levels (Ser780 phosphorylation, ELISA); assay type: cell-based; details: Homo sapiens, MCF7, 24H treatment, read-out: Inhibition of Rb phosphorylation IC50
Description: Hypo-phosphorylation of the retinoblastoma protein (Rb) by cyclin D:Cdk4/6 complexes results in active Rb, which is a clinically relevant biomarker associated with CDK4 or CDK6 inhibition. As a confirmatory measure of functional activity of CDK4/6, the Ser780 phosphorylation state of Rb was assessed. MCF-7 cells were plated at 2.5×10^5 to 3.0×10^6 cells/well in 6-well cell-culture plates and incubated at 37° C. for 24H in MEM medium supplemented with 10% FBS. Cells were treated for 24H with a medium containing test compound at various concentrations (e.g., 0.01, 0.1, […]) or with DMSO (≤1%) in duplicate. After incubation period, the media was removed, and cells were rinsed once with ice-cold PBS and lysed with 0.2 mL of Cell Lysis Buffer containing 1 mM PMSF and Protease Inhibitor. Protein concentration was estimated following Bradford method. The lysis and the Rb measurements were performed following the manufacturer's ELISA kit protocols and buffers (Cell Signaling Technology, Cat. No.: 13016C). Rb inhibition of test compounds was calculated as percentage of vehicle control. In some cases, a nonlinear regression model with a sigmoidal dose response and variable slope within GraphPad Prism was used to calculate the IC50 value of Rb inhibition for individual test compounds.

CDK9 (cyclin K) = biological target: T7, CDK9 (cyclin K) (Homo sapiens, UniProt P50750); assay: LanthaScreen Eu Kinase Binding Assay
T7 construct: purchased Invitrogen Life Technologies (assay service)
Description: 0.16 μL of 100×test compound in 100% DMSO (at specific solutions) were mixed with 3.84 μL of Kinase Buffer (50 mM HEPES pH 7.5, 0.01% BRIJ-35, 10 mM MgCl2, 1 mM EGTA), 8.0 μL of 2× Kinase (5 nM)/Antibody (Eu-anti-His, 2 nM) Mixture and 4.0 μL of 4×Tracer (Tracer 236, 100 nM). The plates were shaken for 30 seconds, and incubated for 60 minutes at room temperature. The plates were read on fluorescence plate reader with Dual emission at 615 nm and 665 nm.
The following equations were used for LanthaScreen Eu Kinase Binding Assay Data Analysis. Percent inhibition (100-% activity) was fitted to the “four-parameter logistic model” in XLfit for determination of IC50 values.

[5] = MCF7, Table 4, Rb positive, treatment 144 Hr with medium change at 72 Hr, Cell Titer-Glo or resazurin
[6] = MCF7, Table 5, parental, non-resistant cell line compared with MCF-7-PR

T1 sequence (P11802 whole entry): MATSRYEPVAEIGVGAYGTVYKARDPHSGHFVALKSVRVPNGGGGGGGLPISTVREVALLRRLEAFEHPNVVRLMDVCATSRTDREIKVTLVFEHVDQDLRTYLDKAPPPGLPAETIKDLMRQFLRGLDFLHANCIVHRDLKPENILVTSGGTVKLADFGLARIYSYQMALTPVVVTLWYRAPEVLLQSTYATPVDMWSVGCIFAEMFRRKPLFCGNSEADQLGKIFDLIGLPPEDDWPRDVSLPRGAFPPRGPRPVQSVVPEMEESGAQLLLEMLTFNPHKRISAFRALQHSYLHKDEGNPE
T1 sequence (P24385 whole entry partner): as the sequence (P24385 whole entry partner) above

| IC50 (CDK4) [nM] | IC50 (CDK6) [nM] | IC50 (CDK1 (cyclin B)) [nM] | IC50 (CDK2 (cyclin A)) [nM] | IC50 (FMS kinase) [nM] | IC50 [1] [nM] | IC50 [2, 5] [nM] | IC50 [3] [nM] | IC50 (PI3Kδ kinase) [nM] | IC50 [4] [nM] | IC50 (CDK1 (cyclin B); read-out: CDK1/B IC50) [nM] | IC50 (CDK9 (cyclin K)) [nM] | Structure (SMILES) | IC50 [2, 6] [nM] | resistance to palbociclib compared to parental MCF-7 cells (increase in cell viability IC50) ([3]; MCF-7-PR versus parental MCF-7) |
| --- | --- | --- | --- | --- | --- | --- | --- | --- | --- | --- | --- | --- | --- | --- |
| 15 | 13 | > 2600 | 10 | 69 | 900 | 515 | 769 |  |  |  |  | CS(=O)(=O)N1CCC(Nc2ncc3cc(C#N)c(=O)n([C@H]4C[C@@H]5CC[C@H]4C5)c3n2)CC1 (racemic) [Compound No. 353, 8-((1S,2S,4R)-bicyclo[2.2.1]heptan-2-yl)-2-(1-(methylsulfonyl)piperidin-4-ylamino)-7-oxo-7,8-dihydropyrido[2,3-d]pyrimidine-6-carbonitrile] | 347 |  |
| 4.5 | 9.5 |  |  | 6 |  | 110 | 85 |  |  |  |  | N#Cc1cc2cnc(Nc3ccc(N4CCNCC4)c(Cl)c3)nc2n(C2CCCC2)c1=O [Compound No. 30, 2-((3-chloro-4-(piperazin-1-yl)phenyl)amino)-8-cyclopentyl-7-oxo-7,8-dihydropyrido[2,3-d]pyrimidine-6-carbonitrile] | 115 |  |
| > 200 | > 200 |  |  | 4.2 |  | 155 | 65 | 1660 |  |  |  | N#Cc1cc2cnc(Nc3ccc(N4CCNCC4)c(C(F)(F)F)c3)nc2n(C2CCCC2)c1=O [Compound No. 33, 8-cyclopentyl-7-oxo-2-((4-(piperazin-1-yl)-3-(trifluoromethyl)phenyl)amino)-7,8-dihydropyrido[2,3-d]pyrimidine-6-carbonitrile] | 205 |  |
| 23 | 17 |  |  | 1 | 2440 | 395 | 1040 |  | 505 |  |  | N#Cc1cc2cnc(Nc3cnn(C4CCNCC4)c3)nc2n(C2CCCC2)c1=O [Compound No. 50, 8-cyclopentyl-7-oxo-2-((1-(piperidin-4-yl)-1H-pyrazol-4-yl)amino)-7,8-dihydropyrido [2,3-d] pyrimidine-6-carbonitrile] | 664 |  |
| 7 | 6 |  | 426 |  | 975 | 568 |  |  |  | 1720 | 83 | N#Cc1cc2cnc(Nc3ccc4c(c3)CCN(CCN)C4)nc2n(C2CCCC2)c1=O [Compound No. 66, 2-((2-(2-aminoethyl)-1,2,3,4-tetrahydroisoquinolin-6-yl)amino)-8-cyclopentyl-7-oxo-7,8-dihydropyrido[2,3-d]pyrimidine-6-carbonitrile] |  |  |
|  |  |  |  |  |  |  |  |  |  |  |  | CC(=O)c1c(C)c2cnc(Nc3ccc(N4CCNCC4)cn3)nc2n(C2CCCC2)c1=O [palbociclib, reference compound] |  | at least 5 fold |

From US20220273659A1, “HETEROCYCLIC COMPOUNDS AS KINASE INHIBITORS” (NUVATION BIO INC., priority 2019, published 2022)
